In patent US10174037B2, “Dihydropyrazolopyrimidinone compounds as PDE2 inhibitors” (Merck Sharp & Dohme Corp., priority 2015, dated 2019):

Molecular target: human PDE2A1 (Homo sapiens (Human), UniProt O00408)
Assay: PDE selectivity IMAP FP assay, human PDE2A1
Format: biochemical
Conditions: Human PDE2; Lab B; read-out: Human PDE2 Ki (nM) Lab B
How it was run: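 IMAP fluorescence polarization assay; PDE2 substrate 50 nM FAM-cAMP containing 1000 nM cGMP, enzyme diluted for 20% substrate conversion, in 10 mM Tris HCl pH 7.2, 10 mM MgCl2, 1 mM DTT. Reaction 60 min at room temperature, stopped with IMAP binding solution; polarization read after 1 h. Ki reported.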

Chain of human PDE2A1 (O00408 other isoform, or with tags, fused parts or gaps): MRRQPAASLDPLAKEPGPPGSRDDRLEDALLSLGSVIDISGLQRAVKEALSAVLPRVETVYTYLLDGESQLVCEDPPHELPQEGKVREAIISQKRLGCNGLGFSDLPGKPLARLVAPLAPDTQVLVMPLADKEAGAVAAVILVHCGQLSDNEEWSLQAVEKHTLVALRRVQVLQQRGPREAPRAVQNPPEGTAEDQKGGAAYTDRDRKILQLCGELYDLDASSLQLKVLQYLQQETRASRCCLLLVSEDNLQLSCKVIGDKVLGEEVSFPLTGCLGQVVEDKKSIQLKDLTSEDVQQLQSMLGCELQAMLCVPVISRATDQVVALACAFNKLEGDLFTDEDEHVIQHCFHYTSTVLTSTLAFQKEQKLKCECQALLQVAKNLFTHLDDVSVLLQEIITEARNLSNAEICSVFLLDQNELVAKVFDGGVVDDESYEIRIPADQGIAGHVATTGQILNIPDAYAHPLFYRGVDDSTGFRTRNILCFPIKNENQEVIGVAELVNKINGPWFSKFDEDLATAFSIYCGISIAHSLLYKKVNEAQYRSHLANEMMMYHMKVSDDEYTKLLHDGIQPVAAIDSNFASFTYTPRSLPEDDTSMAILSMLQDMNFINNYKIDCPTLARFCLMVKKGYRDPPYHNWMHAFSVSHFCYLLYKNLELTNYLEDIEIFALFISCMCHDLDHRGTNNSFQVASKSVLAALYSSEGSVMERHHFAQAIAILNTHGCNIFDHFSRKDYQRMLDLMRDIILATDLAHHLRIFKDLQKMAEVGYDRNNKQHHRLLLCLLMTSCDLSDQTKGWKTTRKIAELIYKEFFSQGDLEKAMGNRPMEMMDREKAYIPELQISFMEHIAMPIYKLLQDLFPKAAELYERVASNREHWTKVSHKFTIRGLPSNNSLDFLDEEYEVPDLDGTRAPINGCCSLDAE

SMILES | Ki
CC(c1ccc(C(C)(F)F)cc1)n1nc(C(F)(F)F)c2c(=O)[nH]c(O)nc21 (single isomer, unassigned) [Example 317, (R)- or (S)-1-(1-(4-(1,1-Difluoroethyl)phenyl)ethyl)-6-hydroxy-3-(trifluoromethyl)-1H-pyrazolo[3,4-d]pyrimidin-4(5H)-one] | 326 nM
CC(c1ccc(CC(F)F)cc1)n1nc(C(F)(F)F)c2c(=O)[nH]c(O)nc21 (single isomer, unassigned) [Example 319, (R)- or (S)-1-(1-(4-(2,2-Difluoroethyl)phenyl)ethyl)-6-hydroxy-3-(trifluoromethyl)-1H-pyrazolo[3,4-d]pyrimidin-4(5H)-one] | 590 nM
CC(c1ccc(CC(F)F)cc1)n1nc(C(F)(F)F)c2c(=O)[nH]c(O)nc21 (single isomer, unassigned) [Example 320, (S)- or (R)-1-(1-(4-(2,2-Difluoroethyl)phenyl)ethyl)-6-hydroxy-3-(trifluoromethyl)-1H-pyrazolo[3,4-d]pyrimidin-4(5H)-one] | 13 nM
CC(c1ccc(OC(F)(F)F)c(Cl)c1)n1nc(C(F)(F)F)c2c(=O)[nH]c(O)nc21 (single isomer, unassigned) [Example 321, (R)- or (S)-1-(1-(3-Chloro-4-(trifluoromethoxy)phenyl)ethyl)-6-hydroxy-3-(trifluoromethyl)-1H-pyrazolo[3,4-d]pyrimidin-4(5H)-one] | 145 nM
CC(c1ccc(OC(F)F)c(F)c1)n1nc(C(F)(F)F)c2c(=O)[nH]c(O)nc21 (single isomer, unassigned) [Example 323, (R)- or (S)-1-(1-(4-(Difluoromethoxy)-3-fluorophenyl)ethyl)-6-hydroxy-3-(trifluoromethyl)-1H-pyrazolo[3,4-d]pyrimidin-4(5H)-one] | 304 nM
CC(c1ccc(OC(F)F)c(Cl)c1)n1nc(C(F)(F)F)c2c(=O)[nH]c(O)nc21 (single isomer, unassigned) [Example 325, (R)- or (S)-1-(1-(3-Chloro-4-(difluoromethoxy)phenyl)ethyl)-6-hydroxy-3-(trifluoromethyl)-1H-pyrazolo[3,4-d]pyrimidin-4(5H)-one] | 529 nM
CC(c1ccc(OC(F)F)c(Cl)c1)n1nc(C(F)(F)F)c2c(=O)[nH]c(O)nc21 (single isomer, unassigned) [Example 326, (S)- or (R)-1-(1-(3-Chloro-4-(difluoromethoxy)phenyl)ethyl)-6-hydroxy-3-(trifluoromethyl)-1H-pyrazolo[3,4-d]pyrimidin-4(5H)-one] | 16 nM
CC(c1ccc(C(F)(F)F)c(Cl)c1)n1nc(C(F)(F)F)c2c(=O)[nH]c(O)nc21 (single isomer, unassigned) [Example 327, (R)- or (S)-1-(1-(3-Chloro-4-(trifluoromethyl)phenyl)ethyl)-6-hydroxy-3-(trifluoromethyl)-1H-pyrazolo[3,4-d]pyrimidin-4(5H)-one] | 382 nM
CCC(c1ccc(C(F)(F)F)cc1)n1nc(C(F)(F)F)c2c(=O)[nH]c(O)nc21 (single isomer, unassigned) [Example 331, (R)- or (S)-6-Hydroxy-3-(trifluoromethyl)-1-(1-(4-(trifluoromethyl)phenyl)propyl)-1H-pyrazolo[3,4-d]pyrimidin-4(5H)-one] | 346 nM
CC(C)C(c1ccc(C(F)(F)F)cc1)n1nc(C(F)(F)F)c2c(=O)[nH]c(O)nc21 (single isomer, unassigned) [Example 333, (R)- or (S)-6-Hydroxy-1-(2-methyl-1-(4-(trifluoromethyl)phenyl)propyl)-3-(trifluoromethyl)-1H-pyrazolo[3,4-d]pyrimidin-4(5H)-one] | 134 nM
O=c1[nH]c(O)nc2c1c(C(F)(F)F)nn2C(c1ccc(C(F)(F)F)cc1)C1CC1 (single isomer, unassigned) [Example 335, (R)- or (S)-1-(Cyclopropyl(4-(trifluoromethyl)phenyl)methyl)-6-hydroxy-3-(trifluoromethyl)-1H-pyrazolo[3,4-d]pyrimidin-4(5H)-one] | 137 nM
CC(C)(C)C(c1ccc(C(F)(F)F)cc1)n1nc(C(F)(F)F)c2c(=O)[nH]c(O)nc21 (single isomer, unassigned) [Example 337, (R)- or (S)-1-(2,2-Dimethyl-1-(4-(trifluoromethyl)phenyl)propyl)-6-hydroxy-3-(trifluoromethyl)-1H-pyrazolo[3,4-d]pyrimidin-4(5H)-one] | 2360 nM
CC(C)(C)C(c1ccc(C(F)(F)F)cc1)n1nc(C(F)(F)F)c2c(=O)[nH]c(O)nc21 (single isomer, unassigned) [Example 338, (S)- or (R)-1-(2,2-Dimethyl-1-(4-(trifluoromethyl)phenyl)propyl)-6-hydroxy-3-(trifluoromethyl)-1H-pyrazolo[3,4-d]pyrimidin-4(5H)-one] | 373 nM

These reach a lower Ki. Values come first.

Ki | SMILES
6.1 nM | CC(c1ccc(OC(F)F)cc1)n1nc(C(F)(F)F)c2c(=O)[nH]c(O)nc21 (single isomer, unassigned) [Example 316, (S)- or (R)-1-{1-[4-(Difluoromethoxy)phenyl]ethyl}-6-hydroxy-3-(trifluoromethyl)-1,5-dihydro-4H-pyrazolo[3,4-d]pyrimidin-4-one]
3 nM | CC(c1ccc(C(C)(F)F)cc1)n1nc(C(F)(F)F)c2c(=O)[nH]c(O)nc21 (single isomer, unassigned) [Example 318, (S)- or (R)-1-(1-(4-(1,1-Difluoroethyl)phenyl)ethyl)-6-hydroxy-3-(trifluoromethyl)-1H-pyrazolo[3,4-d]pyrimidin-4(5H)-one]
9.3 nM | CC(c1ccc(OC(F)(F)F)c(Cl)c1)n1nc(C(F)(F)F)c2c(=O)[nH]c(O)nc21 (single isomer, unassigned) [Example 322, (S)- or (R)-1-(1-(3-Chloro-4-(trifluoromethoxy)phenyl)ethyl)-6-hydroxy-3-(trifluoromethyl)-1H-pyrazolo[3,4-d]pyrimidin-4(5H)-one]
6.8 nM | CC(c1ccc(OC(F)F)c(F)c1)n1nc(C(F)(F)F)c2c(=O)[nH]c(O)nc21 (single isomer, unassigned) [Example 324, (S)- or (R)-1-(1-(4-(Difluoromethoxy)-3-fluorophenyl)ethyl)-6-hydroxy-3-(trifluoromethyl)-1H-pyrazolo[3,4-d]pyrimidin-4(5H)-one]
3 nM | CC(c1ccc(C(F)(F)F)c(Cl)c1)n1nc(C(F)(F)F)c2c(=O)[nH]c(O)nc21 (single isomer, unassigned) [Example 328, (S)- or (R)-1-(1-(3-Chloro-4-(trifluoromethyl)phenyl)ethyl)-6-hydroxy-3-(trifluoromethyl)-1H-pyrazolo[3,4-d]pyrimidin-4(5H)-one]
3.3 nM | CCC(c1ccc(C(F)(F)F)cc1)n1nc(C(F)(F)F)c2c(=O)[nH]c(O)nc21 (single isomer, unassigned) [Example 332, (S)- or (R)-6-hydroxy-3-(trifluoromethyl)-1-(1-(4-(trifluoromethyl)phenyl)propyl)-1H-pyrazolo[3,4-d]pyrimidin-4(5H)-one]
2.3 nM | CC(C)C(c1ccc(C(F)(F)F)cc1)n1nc(C(F)(F)F)c2c(=O)[nH]c(O)nc21 (single isomer, unassigned) [Example 334, (S)- or (R)-6-Hydroxy-1-(2-methyl-1-(4-(trifluoromethyl)phenyl)propyl)-3-(trifluoromethyl)-1H-pyrazolo[3,4-d]pyrimidin-4(5H)-one]
3.2 nM | O=c1[nH]c(O)nc2c1c(C(F)(F)F)nn2C(c1ccc(C(F)(F)F)cc1)C1CC1 (single isomer, unassigned) [Example 336, (S)- or (R)-1-(Cyclopropyl(4-(trifluoromethyl)phenyl)methyl)-6-hydroxy-3-(trifluoromethyl)-1H-pyrazolo[3,4-d]pyrimidin-4(5H)-one]
0.58 nM | CCC(c1ccc(OC(F)F)c(F)c1)n1nc(CF)c2c(=O)[nH]c(N(C)C)nc21 (single isomer, unassigned) [Example 340, (R)- or (S)-1-(1-(4-(Difluoromethoxy)-3-fluorophenyl)propyl)-6-(dimethylamino)-3-(fluoromethyl)-1H-pyrazolo[3,4-d]pyrimidin-4(5H)-one]
0.15 nM | CCC(c1ccc(OC(F)F)c(F)c1)n1nc(CF)c2c(=O)[nH]c(N(C)C)nc21 (single isomer, unassigned) [Example 341, (S)- or (R)-1-(1-(4-(Difluoromethoxy)-3-fluorophenyl)propyl)-6-(dimethylamino)-3-(fluoromethyl)-1H-pyrazolo[3,4-d]pyrimidin-4(5H)-one]
0.1 nM | CCC(c1ccc(OC(F)F)cc1F)n1nc(CF)c2c(=O)[nH]c(N(C)C)nc21 (single isomer, unassigned) [Example 342, (R)- or (S)-1-(1-(4-(Difluoromethoxy)-2-fluorophenyl)propyl)-6-(dimethylamino)-3-(fluoromethyl)-1H-pyrazolo[3,4-d]pyrimidin-4(5H)-one]
1.7 nM | CCC(c1ccc(OC(F)F)cc1F)n1nc(CF)c2c(=O)[nH]c(N(C)C)nc21 (single isomer, unassigned) [Example 343, (S)- or (R)-1-(1-(4-(Difluoromethoxy)-2-fluorophenyl)propyl)-6-(dimethylamino)-3-(fluoromethyl)-1H-pyrazolo[3,4-d]pyrimidin-4(5H)-one]
6.3 nM | CCC(c1ccc(C(F)F)c(F)c1)n1nc(CF)c2c(=O)[nH]c(N(C)C)nc21 (single isomer, unassigned) [Example 344, (R)- or (S)-1-(1-(4-(Difluoromethyl)-3-fluorophenyl)propyl)-6-(dimethylamino)-3-(fluoromethyl)-1H-pyrazolo[3,4-d]pyrimidin-4(5H)-one]
0.13 nM | CCC(c1ccc(C(F)F)c(F)c1)n1nc(CF)c2c(=O)[nH]c(N(C)C)nc21 (single isomer, unassigned) [Example 345, (S)- or (R)-1-(1-(4-(Difluoromethyl)-3-fluorophenyl)propyl)-6-(dimethylamino)-3-(fluoromethyl)-1H-pyrazolo[3,4-d]pyrimidin-4(5H)-one]
